Data: patent US20260355196A1, “INHIBITORS AND DEGRADERS OF PIP4K PROTEIN” (Larkspur Biosciences, Inc., priority 2023, published 2026)

Target: T1, PIP4K2C (Homo sapiens, UniProt Q8TBX8)
T1 sequence (Q8TBX8 1-421): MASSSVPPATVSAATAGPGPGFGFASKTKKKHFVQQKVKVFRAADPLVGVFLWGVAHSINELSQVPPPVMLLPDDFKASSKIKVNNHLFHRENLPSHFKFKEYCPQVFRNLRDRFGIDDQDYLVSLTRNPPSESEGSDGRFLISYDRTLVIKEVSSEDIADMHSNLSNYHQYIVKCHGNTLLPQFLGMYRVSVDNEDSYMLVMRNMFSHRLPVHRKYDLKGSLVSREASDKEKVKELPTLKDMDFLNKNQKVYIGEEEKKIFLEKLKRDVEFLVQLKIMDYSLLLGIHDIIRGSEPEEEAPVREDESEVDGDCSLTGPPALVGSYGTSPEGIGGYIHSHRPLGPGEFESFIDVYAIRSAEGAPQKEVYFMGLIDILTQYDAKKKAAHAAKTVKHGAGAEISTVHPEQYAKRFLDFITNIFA
Experiment: HiBiT PIP4K2C degradation assay in MOLT-4 cells (endogenous PIP4K2C C-terminally tagged with HiBiT)
Type: cell-based
Design: untagged in primary human PBMCs and monocyte-derived dendritic cells
Conditions: 6 hours of incubation time, rather than 24 hours; MOLT-4, top concentration 10 micromolar; read-out: HiBIT-degradation MOLT4 PIP4k2C DC50 (6 hours, marked *)
Procedure, shortened: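 Luminescent HiBiT lytic readout of residual PIP4K2C-HiBiT (CRISPR knock-in, MOLT-4, phenol red-free RPMI-1640 + 10% FBS). Cells exposed 6 or 24 h at 37 C to compound, top 10 micromolar, 3-fold, 10 points, duplicate. Hill fit (Levenberg-Marquardt) gives DC50.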

DC50, < 500 nM:
O=C1CCC(Nc2ccc(C3CCN([C@H]4CC[C@H](NC(=O)[C@H]5CC[C@H](Nc6ncc(F)c(-c7ccnc(N8CCOCC8=O)c7)n6)CC5)CC4)CC3)c(F)c2)C(=O)N1 (stereo partly drawn) [Compound 480, trans-N-((trans)-4-(4-(4-((2,6-dioxopiperidin-3-yl)amino)-2-fluorophenyl)piperidin-1-yl)cyclohexyl)-4-((5-fluoro-4-(2-(3-oxomorpholino)pyridin-4-yl)pyrimidin-2-yl)amino)cyclohexane-1-carboxamide]
O=C1CCC(Nc2ccc(C3CCN(CC4(O)CCN(C(=O)[C@H]5CC[C@H](Nc6ncc(F)c(-c7cccc(C(=O)N8CC[C@H](O)C8)c7)n6)CC5)CC4)CC3)c(F)c2)C(=O)N1 (stereo partly drawn) [Compound 481, trans-3-((3-fluoro-4-(1-((1-(4-((5-fluoro-4-(3-((S)-3-hydroxypyrrolidine-1-carbonyl)phenyl)pyrimidin-2-yl)amino)cyclohexane-1-carbonyl)-4-hydroxypiperidin-4-yl)methyl)piperidin-4-yl)phenyl)amino)piperidine-2,6-dione]
O=C1CCC(Nc2ccc(N3CCN(CC4(O)CCN(C(=O)[C@H]5CC[C@H](Nc6ncc(F)c(-c7cccc(C(=O)N8CC[C@H](O)C8)c7)n6)CC5)CC4)CC3)c(F)c2)C(=O)N1 (stereo partly drawn) [Compound 482, trans-3-((3-fluoro-4-(4-((1-(4-((5-fluoro-4-(3-((S)-3-hydroxypyrrolidine-1-carbonyl)phenyl)pyrimidin-2-yl)amino)cyclohexane-1-carbonyl)-4-hydroxypiperidin-4-yl)methyl)piperazin-1-yl)phenyl)amino)piperidine-2,6-dione]
O=C1CCC(Nc2ccc(N3CCN(CC4CCN(C(=O)[C@H]5CC[C@H](Nc6ncc(F)c(-c7cccc(C(=O)N8CC[C@H](O)C8)c7)n6)CC5)CC4)CC3)c(F)c2)C(=O)N1 (stereo partly drawn) [Compound 483, trans-3-((3-fluoro-4-(4-((1-(4-((5-fluoro-4-(3-((S)-3-hydroxypyrrolidine-1-carbonyl)phenyl)pyrimidin-2-yl)amino)cyclohexane-1-carbonyl)piperidin-4-yl)methyl)piperazin-1-yl)phenyl)amino)piperidine-2,6-dione]
O=C1CCC(Nc2ccc(N3CCN(CC4(F)CCN(C(=O)[C@H]5CC[C@H](Nc6ncc(F)c(-c7cccc(-c8ccccc8)c7)n6)CC5)CC4)CC3)c(F)c2)C(=O)N1 (stereo partly drawn) [Compound 484, trans-3-[3-fluoro-4-[4-[[4-fluoro-1-[4-[[5-fluoro-4-(3-phenylphenyl)pyrimidin-2-yl]amino]cyclohexanecarbonyl]-4-piperidyl]methyl]piperazin-1-yl]anilino]piperidine-2,6-dione]
O=C1CCC(Nc2ccc(N3CCN(CC4CCN(C(=O)[C@H]5CC[C@H](Nc6ncc(F)c(-c7cccc(-c8ccccc8)c7)n6)CC5)CC4)CC3)c(F)c2)C(=O)N1 (stereo partly drawn) [Compound 485, trans-3-((4-(4-((1-(4-((4-([1,1′-biphenyl]-3-yl)-5-fluoropyrimidin-2-yl)amino)cyclohexane-1-carbonyl)piperidin-4-yl)methyl)piperazin-1-yl)-3-fluorophenyl)amino)piperidine-2,6-dione]
O=C1CCC(Nc2ccc(C3CCN(CC4(F)CCN(C(=O)[C@H]5CC[C@H](Nc6ncc(F)c(-c7cccc(-n8ccccc8=O)c7)n6)CC5)CC4)CC3)c(F)c2)C(=O)N1 (stereo partly drawn) [Compound 487, trans-3-((3-fluoro-4-(1-((4-fluoro-1-(4-((5-fluoro-4-(3-(2-oxopyridin-1(2H)-yl)phenyl)pyrimidin-2-yl)amino)cyclohexane-1-carbonyl)piperidin-4-yl)methyl)piperidin-4-yl)phenyl)amino)piperidine-2,6-dione]
CN(C(=O)[C@H]1CC[C@H](Nc2ncc(F)c(-c3cccc(-n4ccccc4=O)c3)n2)CC1)[C@H]1CC[C@H](N2CCN(c3ccc(NC4CCC(=O)NC4=O)cc3F)CC2)CC1 (stereo partly drawn) [Compound 488, trans-(1r,4R)—N-((1r,4R)-4-(4-(4-((2,6-dioxopiperidin-3-yl)amino)-2-fluorophenyl)piperazin-1-yl)cyclohexyl)-4-((5-fluoro-4-(3-(2-oxopyridin-1(2H)-yl)phenyl)pyrimidin-2-yl)amino)-N-methylcyclohexane-1-carboxamide]
Cn1nc(C2CCC(=O)NC2=O)c2ccc(N3CCN(C[C@H]4CC[C@H](C(=O)N[C@H]5CC[C@H](Nc6ncc(F)c(-c7cccc(-n8ccccc8=O)c7)n6)CC5)CC4)CC3)cc21 (stereo partly drawn) [Compound 489, trans-(1r,4R)-4-((4-(3-(2,6-dioxopiperidin-3-yl)-1-methyl-1H-indazol-6-yl)piperazin-1-yl)methyl)-N-((1r,4R)-4-((5-fluoro-4-(3-(2-oxopyridin-1(2H)-yl)phenyl)pyrimidin-2-yl)amino)cyclohexyl)cyclohexane-1-carboxamide]
O=C1CCC(Nc2ccc(N3CCN([C@H]4CC[C@H](NC(=O)[C@H]5CC[C@H](Nc6ncc(F)c(-c7cccc(N8CCCOC8=O)c7)n6)CC5)CC4)CC3)c(F)c2)C(=O)N1 (stereo partly drawn) [Compound 490, trans-N-(trans-4-(4-(4-((2,6-dioxopiperidin-3-yl)amino)-2-fluorophenyl)piperazin-1-yl)cyclohexyl)-4-((5-fluoro-4-(3-(2-oxo-1,3-oxazinan-3-yl)phenyl)pyrimidin-2-yl)amino)cyclohexane-1-carboxamide]
O=C1CCC(Nc2ccc(N3CCN(CC4(F)CCN(C(=O)[C@H]5CC[C@H](Nc6ncc(F)c(-c7cccc(N8CCCCC8)c7)n6)CC5)CC4)CC3)c(F)c2)C(=O)N1 (stereo partly drawn) [Compound 491, trans-3-((3-fluoro-4-(4-((4-fluoro-1-(4-((5-fluoro-4-(3-(piperidin-1-yl)phenyl)pyrimidin-2-yl)amino)cyclohexane-1-carbonyl)piperidin-4-yl)methyl)piperazin-1-yl)phenyl)amino)piperidine-2,6-dione]
O=C1CCC(Nc2ccc(N3CCN(CC4(O)CCN(C(=O)[C@H]5CC[C@H](Nc6ncc(F)c(-c7cccc(C8CC8)c7)n6)CC5)CC4)CC3)c(F)c2)C(=O)N1 (stereo partly drawn) [Compound 492, trans-3-((4-(4-((1-(4-((4-(3-cyclopropylphenyl)-5-fluoropyrimidin-2-yl)amino)cyclohexane-1-carbonyl)-4-hydroxypiperidin-4-yl)methyl)piperazin-1-yl)-3-fluorophenyl)amino)piperidine-2,6-dione]
O=C1CCC(Nc2ccc(N3CCN(CC4(O)CCN(C(=O)[C@H]5CC[C@H](Nc6ncc(F)c(-c7cccc(N8CCCCC8)c7)n6)CC5)CC4)CC3)c(F)c2)C(=O)N1 (stereo partly drawn) [Compound 493, trans-3-[3-fluoro-4-[4-[[1-[4-[[5-fluoro-4-[3-(1-piperidyl)phenyl]pyrimidin-2-yl]amino]cyclohexanecarbonyl]-4-hydroxy-4-piperidyl]methyl]piperazin-1-yl]anilino]piperidine-2,6-dione]
